Test results: patent publication US8324156B2, “Oral insulin therapies and protocol” (Emisphere Technologies, Inc., priority 2003, dated 2012)
Like-named read-outs stand apart in the source and are kept apart here.

What was measured:
blood glucose [1] = conditions: oral sulfonylureas; cited from earlier work
[2] = cited from earlier work; for time to peak plasma/serum drug concentration (tmax): fasting or immediately prior to a meal
blood glucose [3] = conditions: marketed insulin preparations; cited from earlier work
rhesus monkeys = assay: Oral repeated dose toxicity studies in monkeys; type: in vivo, rhesus monkey
Protocol: (§1) Toxicology studies were also conducted in rats and monkeys to assess the potential toxicity of 4-CNAB, alone or in combination with insulin. Based on the 14-day oral repeated dose toxicity studies, the NOAEL (No-Adverse Effect Level) was estimated to be 500 mg/kg in Sprague-Dawley rats, and 400 mg/kg in rhesus monkeys. […] Developmental and reproductive toxicology studies have not yet been conducted.

[4] = Moisture content / hygroscopicity of 4-CNAB; type: physicochemical; conditions: below 75% RH
receptors = assay: Receptor binding screening assays
Protocol: Insulin/4-CNAB capsules were evaluated by Emisphere Technologies, Inc. in a nonclinical program that included pharmacological screening, pharmacokinetic and metabolic profiles, and toxicity assessments in rats and monkeys. […] Similarly, for a fixed oral dose of 4-CNAB, insulin absorption increased with increasing doses of insulin.

[5] = Plasma 4-CNAB concentration (Example 1); type: in vivo, human; conditions: after start of meal intake; 200 mg or 400 mg 4-CNAB capsules
Protocol: During each treatment session, blood samples were collected for determination of plasma concentrations of 4-CNAB, insulin and C-peptide, and for blood glucose concentration. Sampling started 1 hour before intake of the test meal and continued until 6 hours thereafter. Blood samples were drawn via a venous cannula and collected related to the start of the test meal at time point 0. The timing of scheduled samples could be adjusted according to clinical needs or needs for pharmacokinetic data. The duration of each session was approximately 8-9 hours. All experiments were performed after an overnight fast of approximately 12 hours.
Blood samples for determination of 4-CNAB plasma concentrations (2 mL in sodium heparin tube) were drawn 10, 20, 30, 40, 60, 90, 120, 240 and 360 minutes after start of meal intake (9 samples per session). Blood samples for determination of insulin and C-peptide plasma concentrations (5 mL in sodium heparin tube) were drawn at −60 and −30 minutes, at time 0 (start of meal intake), and after 10, 20, 30, 40, 50, 60, 75, 90, 105, 120, 150, 180, 210, 240, 300, and 360 minutes (19 samples per session). Plasma concentrations of insulin were determined by a GLP-validated microparticle enzyme immunoassay (MEIA).
Blood samples for the determination of plasma concentrations of insulin, 4-CNAB and C-peptide were collected at defined intervals, as discussed above. […]

Sprague-Dawley rats = assay: Oral repeated dose toxicity studies in rats; type: in vivo, rat
Protocol: as §1

Genotoxicity studies = conditions: four genotoxicity studies
Protocol: as §1

[6] = dosed three times daily before meals

Compound: COc1ccc(Cl)cc1C(=O)NCCc1ccc(S(=O)(=O)NC(=O)NC2CCCCC2)cc1 [glyburide]
- duration of action (blood glucose [1]): 18 to 24 h
- onset of action (blood glucose [1]): 1.5 h

Compound: Cc1cnc(C(=O)NCCc2ccc(S(=O)(=O)NC(=O)NC3CCCCC3)cc2)cn1 [Glipizide]
- duration of action (blood glucose [1]): 10 to 24 h
- onset of action (blood glucose [1]): one

Compound: CCC1=C(C)CN(C(=O)NCCc2ccc(S(=O)(=O)NC(=O)N[C@H]3CC[C@H](C)CC3)cc2)C1=O [Glimepiride]
- duration of action (blood glucose [1]): 18 to 28 h
- onset of action (blood glucose [1]): 2 h

Compound: CCCCNC(=O)NS(=O)(=O)c1ccc(C)cc1 [tolbutamide]
- duration of action (blood glucose [1]): 6 to 12 h
- onset of action (blood glucose [1]): 1 h

Compound: CCCNC(=O)NS(=O)(=O)c1ccc(Cl)cc1 [Chlorpropamide]
- duration of action (blood glucose [1]): 72 h
- onset of action (blood glucose [1]): one

Compound: CCc1ccc(CCOc2ccc(CC3SC(=O)NC3=O)cc2)nc1 (stereo not drawn) [ACTOS® thiazolidinedione, pioglitazone]
- first measurable in serum ([2]; oral, fasting state): ≤ 30 min
- time to peak plasma/serum drug concentration (tmax) ([2]; oral): ≤ 2 h

Compound: Lantus®
- duration of activity (blood glucose [3]): up to 24 hours

Compound: CN(CCOc1ccc(CC2SC(=O)NC2=O)cc1)c1ccccn1 (stereo not drawn) [AVANDIA® thiazolidinedione, rosiglitazone]
- time to peak concentration with food ([2]; food effect): about 1.75 hours
- time to peak plasma/serum drug concentration (tmax) ([2]; oral): ≤ 1 h

Compound: CC(=O)c1ccc(S(=O)(=O)NC(=O)NC2CCCCC2)cc1 [Acetohexamide]
- onset of action (blood glucose [1]): 1 h

Compound: Cc1ccc(S(=O)(=O)NC(=O)NN2CCCCCC2)cc1 [Tolazamide]
- onset of action (blood glucose [1]): 4 to 6 h

Compound: Ultralente insulin
- onset of action (blood glucose [3]): 2 to 4 h
- peak time of effect (blood glucose [3]): 8 to 20 h

Compound: CCOc1cc(CC(=O)N[C@@H](CC(C)C)c2ccccc2N2CCCCC2)ccc1C(=O)O [repaglinide]
- decrease in AUC when given with food ([2]; food effect): 12.4%
- decrease in Cmax when given with food ([2]; food effect): 20%
- time to peak plasma/serum drug concentration (tmax) ([2]; oral): ≤ 1 h

Compound: CC(C)[C@H]1CC[C@H](C(=O)N[C@H](Cc2ccccc2)C(=O)O)CC1 [nateglinide]
- time to stimulation of pancreatic insulin secretion ([2]; after oral administration): ≤ 20 min
- fall of plasma insulin to baseline after dosing [2, 6]: ≤ 4 h
- time of peak plasma insulin levels after dosing [2, 6]: ~1 h
- time to peak plasma/serum drug concentration (tmax) ([2]; oral): one

Compound: O=C([O-])CCCNC(=O)c1ccc(Cl)cc1O.[Na+] [4-CNAB, sodium N-[4-(4-chloro-2 hydroxybenzoyl)amino]butyrate]
- NOAEL (No-Adverse Effect Level) (rhesus monkeys; 14-day oral repeated dose, rhesus monkeys): 400 mg/kg
- NOAEL (rhesus monkeys; 90-day oral repeated dose, monkeys): 600 mg/kg
- residual moisture content [4]: < 0.5%
- inherent pharmacological activity (receptors): no inherent pharmacological activity
- plasma 4-CNAB concentration after 2 hours relative to the levels seen after 10 minutes [5]: less than 10%
- NOAEL (No-Adverse Effect Level) (Sprague-Dawley rats; 14-day oral repeated dose, Sprague-Dawley rats, 4-CNAB alone or in combination with insulin): 500 mg/kg
- NOAEL (Sprague-Dawley rats; 90-day oral repeated dose, rats): 250 mg/kg
- genotoxicity findings (Genotoxicity studies): no positive findings

Compound: Glargine insulin: long-acting insulin
- duration of activity (blood glucose [3]): 24 h
- peak time of effect (blood glucose [3]): no peak effect
